Reference: paper PMC5218480 (PLoS ONE, 2017)

System: MV-4-11 cells
Assay: Gene expression microarray analysis (Affymetrix PrimeView) and GSEA
Assay type: cell-based, human
Parameters: RFU PODN (11730768_x_at) / Fold change /veh PODN (11730768_x_at) / RFU LINC00158 (11744669_a_at) / Fold change /veh LINC00158 (11744669_a_at) / RFU DUSP10 (11751237_a_at) / Fold change /veh DUSP10 (11751237_a_at) / RFU ID3 (11757404_x_at) / Fold change /veh ID3 (11757404_x_at) / RFU PLEKHG5 (11737974_s_at) / Fold change /veh PLEKHG5 (11737974_s_at) / RFU LRRC4B (11730491_at) / Fold change /veh LRRC4B (11730491_at) / RFU GIMAP4 (11747438_a_at) / Fold change /veh GIMAP4 (11747438_a_at) / RFU KRT8 (11758183_x_at) / Fold change /veh KRT8 (11758183_x_at) / RFU CNN1 (11734310_a_at) / Fold change /veh CNN1 (11734310_a_at) / RFU VPS37D (11726825_at) / Fold change /veh VPS37D (11726825_at) / RFU C10orf10 (11716522_x_at) / Fold change /veh C10orf10 (11716522_x_at) / RFU KIR2DL2 /// KIR2DL4 /// KIR2DL5A /// KIR2DL5B /// KIR2DS1 /// KIR2DS2 /// KIR2DS3 /// KIR2DS4 /// KIR3DL3 /// KIR3DL3 /// KIR3DS1 (11738374_at) / Fold change /veh KIR2DL2 /// KIR2DL4 /// KIR2DL5A /// KIR2DL5B /// KIR2DS1 /// KIR2DS2 /// KIR2DS3 /// KIR2DS4 /// KIR3DL3 /// KIR3DL3 /// KIR3DS1 (11738374_at) / RFU C1QL1 (11718748_at) / Fold change /veh C1QL1 (11718748_at) / RFU TMPRSS4 (11747572_a_at) / Fold change /veh TMPRSS4 (11747572_a_at) / RFU HAMP (11756126_x_at) / Fold change /veh HAMP (11756126_x_at) / RFU RNFT2 (11725882_a_at) / Fold change /veh RNFT2 (11725882_a_at) / RFU NR4A2 (11747474_a_at) / Fold change /veh NR4A2 (11747474_a_at) / RFU ABCC12 (11746883_a_at) / Fold change /veh ABCC12 (11746883_a_at) / RFU TMEM136 (11760407_x_at) / Fold change /veh TMEM136 (11760407_x_at) / RFU CLDN22 /// WWC2 (11732394_at) / Fold change /veh CLDN22 /// WWC2 (11732394_at) / RFU HLA-DPB1 (11760878_x_at) / Fold change /veh HLA-DPB1 (11760878_x_at) / RFU SPINT1 (11716480_a_at) / Fold change /veh SPINT1 (11716480_a_at) / RFU GAP43 (11754022_s_at) / Fold change /veh GAP43 (11754022_s_at) / RFU A4GNT (11735810_at) / Fold change /veh A4GNT (11735810_at) / RFU PRB3 (11715151_x_at) / Fold change /veh PRB3 (11715151_x_at) / RFU TUBB4B (11761932_at) / Fold change /veh TUBB4B (11761932_at) / RFU CAPN14 (11732068_a_at) / Fold change /veh CAPN14 (11732068_a_at) / RFU TMCC2 (11721928_a_at) / Fold change /veh TMCC2 (11721928_a_at) / RFU IRGQ (11745062_a_at) / Fold change /veh IRGQ (11745062_a_at) / RFU FAM174B (11720279_a_at) / Fold change /veh FAM174B (11720279_a_at) / RFU TMPRSS4 (11748680_a_at) / Fold change /veh TMPRSS4 (11748680_a_at) / RFU FAM212B (11763350_a_at) / Fold change /veh FAM212B (11763350_a_at) / RFU PLEKHG5 (11743358_a_at) / Fold change /veh PLEKHG5 (11743358_a_at) / RFU ZSCAN30 (11745921_a_at) / Fold change /veh ZSCAN30 (11745921_a_at) / RFU CMKLR1 (11741424_a_at) / Fold change /veh CMKLR1 (11741424_a_at) / RFU LOC101060620 /// MAPK8IP1 (11723275_at) / Fold change /veh LOC101060620 /// MAPK8IP1 (11723275_at) / RFU SPTSSB (11747773_x_at) / Fold change /veh SPTSSB (11747773_x_at) / RFU PRSS12 (11739890_at) / Fold change /veh PRSS12 (11739890_at) / RFU BIN1 (11741810_x_at) / Fold change /veh BIN1 (11741810_x_at) / RFU WNT11 (11732464_a_at) / Fold change /veh WNT11 (11732464_a_at) / RFU C10orf10 (11716521_a_at) / Fold change /veh C10orf10 (11716521_a_at) / RFU C5orf56 (11738089_at) / Fold change /veh C5orf56 (11738089_at) / RFU CYB561 (11721691_x_at) / Fold change /veh CYB561 (11721691_x_at) / RFU ANKRD19P (11752326_a_at) / Fold change /veh ANKRD19P (11752326_a_at) / RFU OR2T12 /// OR2T33 /// OR2T8 (11738714_s_at) / Fold change /veh OR2T12 /// OR2T33 /// OR2T8 (11738714_s_at) / RFU VCAN (11748164_a_at) / Fold change /veh VCAN (11748164_a_at) / RFU JSRP1 (11732532_at) / Fold change /veh JSRP1 (11732532_at) / RFU KRTAP10-11 (11738290_x_at) / Fold change /veh KRTAP10-11 (11738290_x_at) / RFU MYO3A (11730013_a_at) / Fold change /veh MYO3A (11730013_a_at) / RFU EBF3 (11725865_a_at) / Fold change /veh EBF3 (11725865_a_at) / RFU CAMK2N1 (11719241_x_at) / Fold change /veh CAMK2N1 (11719241_x_at) / RFU C5orf56 (11738088_a_at) / Fold change /veh C5orf56 (11738088_a_at) / RFU OLFML3 (11715873_a_at) / Fold change /veh OLFML3 (11715873_a_at) / RFU LOC100653217 /// NTM (11731650_a_at) / Fold change /veh LOC100653217 /// NTM (11731650_a_at) / RFU MAPK11 (11762145_a_at) / Fold change /veh MAPK11 (11762145_a_at) / RFU FIZ1 (11724087_x_at) / Fold change /veh FIZ1 (11724087_x_at) / RFU OASL (11726364_x_at) / Fold change /veh OASL (11726364_x_at) / RFU SOX15 (11748057_x_at) / Fold change /veh SOX15 (11748057_x_at) / RFU CD79A (11719716_a_at) / Fold change /veh CD79A (11719716_a_at) / RFU HIST1H1D (11736915_at) / Fold change /veh HIST1H1D (11736915_at) / RFU CASKIN2 (11723855_a_at) / Fold change /veh CASKIN2 (11723855_a_at) / RFU LOC730098 (11760151_x_at) / Fold change /veh LOC730098 (11760151_x_at) / RFU OR4N2 (11742367_at) / Fold change /veh OR4N2 (11742367_at) / RFU PRRT2 (11749266_a_at) / Fold change /veh PRRT2 (11749266_a_at) / RFU SNX32 (11753110_a_at) / Fold change /veh SNX32 (11753110_a_at) / RFU CDHR5 (11726645_a_at) / Fold change /veh CDHR5 (11726645_a_at) / RFU RCAN1 (11760418_a_at) / Fold change /veh RCAN1 (11760418_a_at) / RFU FAM167A (11723789_a_at) / Fold change /veh FAM167A (11723789_a_at) / RFU FAM26E (11764081_at) / Fold change /veh FAM26E (11764081_at) / RFU ISYNA1 (11749810_s_at) / Fold change /veh ISYNA1 (11749810_s_at) / RFU ACY1 (11761880_at) / Fold change /veh ACY1 (11761880_at) / RFU 11764098_at / Fold change /veh 11764098_at / RFU SAMD14 (11745864_x_at) / Fold change /veh SAMD14 (11745864_x_at) / RFU NPB (11741838_a_at) / Fold change /veh NPB (11741838_a_at) / RFU TMPRSS6 (11731388_a_at) / Fold change /veh TMPRSS6 (11731388_a_at) / RFU KRTAP10-2 (11738614_at) / Fold change /veh KRTAP10-2 (11738614_at) / RFU ARHGAP8 /// PRR5-ARHGAP8 (11727945_x_at) / Fold change /veh ARHGAP8 /// PRR5-ARHGAP8 (11727945_x_at) / RFU KRTAP5-7 /// NADSYN1 (11734609_at) / Fold change /veh KRTAP5-7 /// NADSYN1 (11734609_at) / RFU RASL12 (11751679_a_at) / Fold change /veh RASL12 (11751679_a_at) / RFU CDKN2B (11736163_a_at) / Fold change /veh CDKN2B (11736163_a_at) / RFU PRF1 (11729649_at) / Fold change /veh PRF1 (11729649_at) / RFU, ZNF638 /// ZNF638-IT1 / Fold change vs veh, ZNF638 /// ZNF638-IT1 / RFU, PANK3 / Fold change vs veh, PANK3 / RFU, SH3YL1 / Fold change vs veh, SH3YL1 / RFU, ZEB2 / Fold change vs veh, ZEB2 / RFU, NRIP1 / Fold change vs veh, NRIP1 / RFU, PTTG1IP / Fold change vs veh, PTTG1IP / RFU, CAPN2 / Fold change vs veh, CAPN2 / RFU, MED14 / Fold change vs veh, MED14 / RFU, SNORA58 / Fold change vs veh, SNORA58 / RFU, C1orf63 / Fold change vs veh, C1orf63 / RFU, LRRFIP1 / Fold change vs veh, LRRFIP1 / RFU, NDUFAF7 / Fold change vs veh, NDUFAF7 / RFU, SLC12A2 / Fold change vs veh, SLC12A2 / RFU, IBTK / Fold change vs veh, IBTK / RFU, ESF1 / Fold change vs veh, ESF1 / Fold change vs veh, TMEM50B / RFU, TAOK1 / Fold change vs veh, TAOK1 / RFU, ACBD3 / Fold change vs veh, ACBD3 / RFU, TMA16 / Fold change vs veh, TMA16 / RFU, RWDD3 / Fold change vs veh, RWDD3 / RFU, BCAT1 / Fold change vs veh, BCAT1 / RFU, EDEM3 / Fold change vs veh, EDEM3 / RFU, TMEM33 / Fold change vs veh, TMEM33 / RFU, WDR75 / Fold change vs veh, WDR75 / RFU, AHCTF1 / Fold change vs veh, AHCTF1 / RFU, TFRC / Fold change vs veh, TFRC / RFU, ZDHHC17 / Fold change vs veh, ZDHHC17 / RFU, NOM1 / Fold change vs veh, NOM1 / RFU, ARL8B / Fold change vs veh, ARL8B / RFU, ZBTB11 / Fold change vs veh, ZBTB11 / RFU, TAMM41 / Fold change vs veh, TAMM41 / RFU, KIAA1704 /// LOC100996395 / Fold change vs veh, KIAA1704 /// LOC100996395 / RFU, ING1 / Fold change vs veh, ING1 / RFU, TRMT61B / Fold change vs veh, TRMT61B / RFU, FUBP3 / Fold change vs veh, FUBP3 / RFU, TP53 / Fold change vs veh, TP53 / RFU, TNKS2 / Fold change vs veh, TNKS2 / RFU, ZFP14 / Fold change vs veh, ZFP14 / RFU, ACTR2 / Fold change vs veh, ACTR2 / RFU, PPP3R1 / Fold change vs veh, PPP3R1 / RFU, PIK3R1 / Fold change vs veh, PIK3R1 / RFU, HNRNPA1 / Fold change vs veh, HNRNPA1 / RFU, RNF170 / Fold change vs veh, RNF170 / RFU, ZNF28 / Fold change vs veh, ZNF28 / RFU, RNGTT / Fold change vs veh, RNGTT / RFU, OGT / Fold change vs veh, OGT / RFU, BRD1 / Fold change vs veh, BRD1 / RFU, MARS / Fold change vs veh, MARS / RFU, ZNF655 / Fold change vs veh, ZNF655 / RFU, FAHD1 / Fold change vs veh, FAHD1 / RFU, BDP1 / Fold change vs veh, BDP1 / RFU, LRRCC1 / Fold change vs veh, LRRCC1 / RFU, ARID1A / Fold change vs veh, ARID1A / RFU, ZNF146 / Fold change vs veh, ZNF146 / RFU, ZNF330 / Fold change vs veh, ZNF330 / RFU, GPN3 / Fold change vs veh, GPN3 / RFU, C9orf123 / Fold change vs veh, C9orf123 / RFU, N4BP2L2 / Fold change vs veh, N4BP2L2 / RFU, ARFIP1 / Fold change vs veh, ARFIP1 / RFU, FAM179B / Fold change vs veh, FAM179B / RFU, BCL10 / Fold change vs veh, BCL10 / RFU, UHRF1BP1L / Fold change vs veh, UHRF1BP1L / RFU, BET1 / Fold change vs veh, BET1 / RFU, CNOT2 / Fold change vs veh, CNOT2 / RFU, ZNF268 / Fold change vs veh, ZNF268 / Fold change vs veh, ZNF507 / RFU, DGCR2 / Fold change vs veh, DGCR2 / RFU, WDSUB1 / Fold change vs veh, WDSUB1 / Fold change vs veh, HSP90B1 /// MIR3652 / RFU, ADSS / Fold change vs veh, ADSS / RFU, GK / Fold change vs veh, GK / RFU, ZNF148 / Fold change vs veh, ZNF148 / RFU, TAF9 / Fold change vs veh, TAF9 / RFU, SLC1A5 / Fold change vs veh, SLC1A5 / RFU, SLMO2 / Fold change vs veh, SLMO2 / RFU, ABCC4 / Fold change vs veh, ABCC4 / RFU, LOC101060439 /// RAP1B / Fold change vs veh, LOC101060439 /// RAP1B / RFU, RFX7 / Fold change vs veh, RFX7 / RFU, GTPBP10 / Fold change vs veh, GTPBP10 / RFU, CNEP1R1 / Fold change vs veh, CNEP1R1 / RFU, BIVM-ERCC5 /// ERCC5 / Fold change vs veh, BIVM-ERCC5 /// ERCC5 / RFU, ILF3 / Fold change vs veh, ILF3 / RFU 11762660_at / Fold change /veh 11762660_at / RFU VCAN (11757783_s_at) / Fold change /veh VCAN (11757783_s_at) / RFU DDX43 (11728927_at) / Fold change /veh DDX43 (11728927_at) / RFU KRT8 (11758188_x_at) / Fold change /veh KRT8 (11758188_x_at) / RFU NKD1 (11759106_at) / Fold change /veh NKD1 (11759106_at) / RFU SRD5A1 (11742802_a_at) / Fold change /veh SRD5A1 (11742802_a_at) / RFU TPSAB1 /// TPSB2 (11721975_s_at) / Fold change /veh TPSAB1 /// TPSB2 (11721975_s_at) / RFU GSTM3 (11746129_a_at) / Fold change /veh GSTM3 (11746129_a_at) / RFU IL23R (11737362_x_at) / Fold change /veh IL23R (11737362_x_at) / RFU TMEM51 (11727254_a_at) / Fold change /veh TMEM51 (11727254_a_at) / RFU PIWIL2 (11732686_x_at) / Fold change /veh PIWIL2 (11732686_x_at) / RFU ORM1 (11744905_x_at) / Fold change /veh ORM1 (11744905_x_at) / RFU CCDC152 (11743942_at) / Fold change /veh CCDC152 (11743942_at) / RFU ECM1 (11717891_a_at) / Fold change /veh ECM1 (11717891_a_at) / RFU IL23R (11748794_a_at) / Fold change /veh IL23R (11748794_a_at) / RFU TNFAIP8L3 (11732012_x_at) / Fold change /veh TNFAIP8L3 (11732012_x_at) / RFU MBOAT4 (11741988_at) / Fold change /veh MBOAT4 (11741988_at) / RFU 11764193_at / Fold change /veh 11764193_at / RFU TMEM53 (11763286_at) / Fold change /veh TMEM53 (11763286_at) / RFU MAGEB2 (11727129_at) / Fold change /veh MAGEB2 (11727129_at) / RFU TMEM200A (11744735_a_at) / Fold change /veh TMEM200A (11744735_a_at) / RFU CCDC152 (11751479_a_at) / Fold change /veh CCDC152 (11751479_a_at) / RFU FAM211A (11726209_a_at) / Fold change /veh FAM211A (11726209_a_at) / RFU RGS16 (11746705_a_at) / Fold change /veh RGS16 (11746705_a_at) / RFU VCAN (11755009_s_at) / Fold change /veh VCAN (11755009_s_at) / RFU RHOB (11743442_s_at) / Fold change /veh RHOB (11743442_s_at) / RFU RGS16 (11720943_a_at) / Fold change /veh RGS16 (11720943_a_at) / RFU RGS16 (11720944_at) / Fold change /veh RGS16 (11720944_at) / RFU, VPS4B / Fold change vs veh, VPS4B / RFU, CREB1 / Fold change vs veh, CREB1 / RFU, DNAJC13 / Fold change vs veh, DNAJC13 / RFU, GNAQ / Fold change vs veh, GNAQ / RFU, CDK5R1 / Fold change vs veh, CDK5R1 / RFU, ZRANB3 / Fold change vs veh, ZRANB3 / RFU, CUL4A / Fold change vs veh, CUL4A / RFU, CCNY / Fold change vs veh, CCNY / RFU, UFL1 / Fold change vs veh, UFL1 / RFU, COG3 / Fold change vs veh, COG3 / RFU, DIAPH2 / Fold change vs veh, DIAPH2 / RFU, SKA2 / Fold change vs veh, SKA2 / RFU, AFF3 / Fold change vs veh, AFF3 / RFU, LMF1 / Fold change vs veh, LMF1 / RFU, IPO11 / Fold change vs veh, IPO11 / RFU, DFFB / Fold change vs veh, DFFB / RFU, FOXP1 / Fold change vs veh, FOXP1 / RFU, CARD8 / Fold change vs veh, CARD8 / RFU, STRN3 / Fold change vs veh, STRN3 / RFU, ADK / Fold change vs veh, ADK / RFU, RASSF2 / Fold change vs veh, RASSF2 / RFU, WIPF1 / Fold change vs veh, WIPF1 / RFU, LARP1B / Fold change vs veh, LARP1B / RFU, RASA1 / Fold change vs veh, RASA1 / RFU, RB1 / Fold change vs veh, RB1 / RFU, PPFIA1 / Fold change vs veh, PPFIA1 / RFU, MAT2A / Fold change vs veh, MAT2A / RFU, CCT5 / Fold change vs veh, CCT5 / RFU, WDR92 / Fold change vs veh, WDR92 / RFU, CUX1 / Fold change vs veh, CUX1 / RFU, TTC7A / Fold change vs veh, TTC7A / RFU, TMEM135 / Fold change vs veh, TMEM135 / RFU, DEPTOR / Fold change vs veh, DEPTOR / RFU, CPM / Fold change vs veh, CPM / RFU, DNAJB6 / Fold change vs veh, DNAJB6 / RFU, CACNA2D3 / Fold change vs veh, CACNA2D3 / RFU, DTX4 / Fold change vs veh, DTX4 / RFU, TFCP2 / Fold change vs veh, TFCP2 / RFU, GMCL1 /// GMCL1P1 / Fold change vs veh, GMCL1 /// GMCL1P1 / RFU, AEBP2 / Fold change vs veh, AEBP2 / RFU, SNHG1 /// SNORD22 /// SNORD25 /// SNORD26 /// SNORD27 /// SNORD28 /// SNORD29 /// SNORD31 / Fold change vs veh, SNHG1 /// SNORD22 /// SNORD25 /// SNORD26 /// SNORD27 /// SNORD28 /// SNORD29 /// SNORD31 / Fold change (Aza/veh), C12orf56 (ProbeSet 11735607_a_at) / Fold change (ACY-1035/veh), C12orf56 (ProbeSet 11735607_a_at) / Fold change (Aza/veh), FGFR1OP (ProbeSet 11751329_s_at) / Fold change (ACY-1035/veh), FGFR1OP (ProbeSet 11751329_s_at) / Fold change (Aza/veh), VPS36 (ProbeSet 11739960_a_at) / Fold change (ACY-1035/veh), VPS36 (ProbeSet 11739960_a_at) / RFU SYPL1 (11715823_x_at) / Fold change /veh SYPL1 (11715823_x_at) / RFU IGFBP7 (11715501_s_at) / Fold change /veh IGFBP7 (11715501_s_at) / RFU REEP3 (11722064_at) / Fold change /veh REEP3 (11722064_at) / RFU IGLL1 (11728026_x_at) / Fold change /veh IGLL1 (11728026_x_at): dose or concentration left out as unconfirmed
Details: ProbeSet 11733831_s_at; LIST D

Nc1ccc(-c2cccs2)cc1NC(=O)c1ccc2c(c1)cc(C1CC1)n2CCN1CCOCC1 [ACY-1035]
Fold change vs veh, GMCL1 /// GMCL1P1: 0.86
